Test results reported in US9586963B2 (GENFIT, priority 2011, dated 2017).
Structures can show the parent of a compound that is named as a salt.

Biological target: T1, Rev-Erb alpha (Homo sapiens, UniProt P20393)
T1 sequence (P20393 284-614 limits assumed): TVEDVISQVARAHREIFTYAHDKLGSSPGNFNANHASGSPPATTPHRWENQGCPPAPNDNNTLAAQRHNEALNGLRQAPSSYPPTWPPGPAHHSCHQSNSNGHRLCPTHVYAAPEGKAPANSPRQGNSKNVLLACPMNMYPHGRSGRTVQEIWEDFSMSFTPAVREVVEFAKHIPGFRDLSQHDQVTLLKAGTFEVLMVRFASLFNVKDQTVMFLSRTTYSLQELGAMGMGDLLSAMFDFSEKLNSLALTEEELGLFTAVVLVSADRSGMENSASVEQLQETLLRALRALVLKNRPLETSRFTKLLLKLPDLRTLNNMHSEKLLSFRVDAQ
Test: M2H (mammalian two-hybrid) cellular activation assay of Rev-Erb alpha
Type: cell-based
Conditions: M2H assay, HEK293 cells; for EC50: Gal4-Rev-Erb alpha / VP16-NCoR, luciferase reporter; for Emax: relative to DMSO, at the tested dose, read-out: TOP activation
Method: In this system, Rev-Erb alpha or Rev-Erb beta is expressed as a fusion to the Gal4 DNA-binding domain and the cofactor NCoR is expressed as a fusion to the activation domain of the Herpes Simplex Virus tegument protein VP16. These fusion proteins were included in plasmids at a concentration of 1 μg/μL. The pBS-SK+ vector was added to the preparation to adjust the DNA quantity to a fixed value for each condition.
The transfection mix (Jet-PEI protocol, Polyplus transfection) comprised: • 3 mL of Jet PEI Mix (180 μL Jet-Pei and NaCl at 150 mM) and • 3 mL of the DNA Mix or of the DNA Mix control (wherein the Gal4-Rev-Erb alpha plasmid was replaced by a pGal4phi plasmid).
DNA Mix comprised 1.2 mL of DNA and 1.8 mL of NaCl at 150 mM with, in a T225 flask: • 90 ng of Gal4-Rev-Erb alpha, or 90 ng of Gal4-Rev-Erb beta, • 4500 ng of VP16-NCoR, • 27000 ng of Gal4-RE and • 13410 ng of pBS-SK+. Cells
HEK293 cells were cultured in DMEM (Invitrogen 41965) comprising 10% FBS, P/S, 1% glutamine, 1% pyruvate (Invitrogen 11360) and 1% amino acids (Invitrogen 11140). Cells were then batch co-transfected with plasmid vectors (described in the table above) using as Jet-PEI as reagent (Polyplus) following the protocol specified below.
The 6 mL-transfection mix was transferred in a T225 flask. HEK293 cells were then added at a concentration of 12 Millions of cells for 54 mL of medium (DMEM comprising 10% FBS and 1% P/S). Cells incubated over-night at 37° C. and under 5% CO2.
This cell-based assay is performed using 384-well Greiner white plates (Reference 781080). After the incubation, cells were rinsed with PBS, trypsinized, centrifuged and resuspended in free-serum DMEM without phenol red (Invitrogen 31053). Cells were counted and adjusted to 0.5 Million per mL and plated at a concentration of 10,000 cells in 20 μL per well. They were incubated a minimum of 4 hours at 37° C. under 5% CO2. Cells were treated with 20 μL of the compound to analyze (concentration of 2× diluted in DMEM without FBS containing a maximum of 1% DMSO) and incubated over-night (18 hours, 37° C. and 5% CO2). Each compound has been tested at 6 different concentrations to depict a dose-effect allowing the measure of biochemical parameters such as EC50 and TOP activation (%).
Cells were incubated 30 minutes with 40 μL/well of Steady Glow (Promega) and luminescence was read with TECAN Genios Pro (100 ms/w). Four experiments were carried out for each compound.
Each compound has been tested at 6 different concentrations to depict a dose-effect allowing the measure of biochemical parameters such as EC50 and TOP activation (%).
The mammalian two-hybrid system (M2H) assay consists herein in studying the ability of compounds according to the invention to activate Rev-Erbalpha in cells and thus modulate the interaction with its corepressor. The interaction of the two proteins is assessed with the help of the Luciferase reporter gene. HEK293 cells were transfected with two gene constructions: Gal4-RE VP16-NCoR and Gal4-Rev-Erbalpha or with Gal4-RE, sVP16-NCoR and Gal4-Rev-Erb beta.
The ability of compounds according to the invention of activating Rev-Erbalpha alpha or Rev-Erb beta was assessed in the described cell-based assay. EC50 and TOP activation (%) were measured.

SMILES	EC50 [nM]	Emax [%]
Clc1nnc2ccc(Oc3ccccc3-c3ccsc3)nn12 [Cpd.4-108, 3-chloro-6-(2-(thiophen-3-yl)phenoxy)-[1,2,4]triazolo[4,3-b]pyridazine]	100 to 1000	–
Cc1noc(C)c1-c1ccccc1Oc1ccc2nnc(Cl)n2n1 [Cpd.4-109, 3-chloro-6-(2-(3,5-dimethylisoxazol-4-yl)phenoxy)-[1,2,4]triazolo[4,3-b]pyridazine]	> 6000	> 130
Clc1nnc2ccc(Oc3ccccc3-c3ccc4scnc4c3)nn12 [Cpd.4-110, 6-(2-(benzo[d]thiazol-5-yl)phenoxy)-3-chloro-[1,2,4]triazolo[4,3-b]pyridazine]	100 to 1000	–
COc1ccc(-c2cccc(F)c2)c(Oc2ccc3nnc(Cl)n3n2)c1 [Cpd.4-112, 3-chloro-6-[(3′-fluoro-4-methoxybiphenyl-2-yl)oxy]-[1,2,4]triazolo[4,3-b]pyridazine]	< 100	–
Fc1ccc(Oc2ccc3nnc(Cl)n3n2)c(-c2ccccc2F)c1 [Cpd.4-121, 3-chloro-6-(2′,5-difluorobiphenyl-2-yloxy)-[1,2,4]triazolo[4,3-b]pyridazine]	100 to 1000	–
Cc1ncccc1-c1ccc(C(F)(F)F)cc1Oc1ccc2nnc(Cl)n2n1 [Cpd.4-123, 3-chloro-6-(2-(2-methylpyridin-3-yl)-5-(trifluoromethyl)phenoxy)-[1,2,4]triazolo[4,3-b]pyridazine]	100 to 1000	–
CN1CCN(Cc2ccc(C(F)(F)F)cc2Oc2ccc3nnc(Cl)n3n2)CC1 [Cpd.4-124, 3-chloro-6-(2-((4-methylpiperazin-1-yl)methyl)-5-(trifluoromethyl)phenoxy)-[1,2,4]triazolo[4,3-b]pyridazine]	> 6000	> 130
CC(C)c1ncncc1-c1ccc(C(F)(F)F)cc1Oc1ccc2nnc(Cl)n2n1 [Cpd.4-128, 3-chloro-6-((2-(4-isopropylpyrimidin-5-yl))-5-(trifluoromethyl)phenoxy)-[1,2,4]triazolo[4,3-b]pyridazine]	1000 to 6000	–
FC(F)(F)c1cccc(Oc2ccc3nnc(Cl)n3n2)c1-c1cccnc1 [Cpd.4-129, 3-chloro-6-(2-(pyridin-3-yl)-3-(trifluoromethyl)phenoxy)-[1,2,4]triazolo[4,3-b]pyridazine]	1000 to 6000	–
O=[N+]([O-])c1ccc(Oc2ccc3nnc(Cl)n3n2)c(-c2ccccc2)c1 [Cpd.4-134, 3-chloro-6-(5-nitrobiphenyl-2-yloxy)-[1,2,4]triazolo[4,3-b]pyridazine]	1000 to 6000	–
Cc1cccc(-c2cc(F)ccc2Oc2ccc3nnc(C(F)(F)F)n3n2)c1 [Cpd.4-136, 3-(trifluoromethyl)-6-(5-fluoro-3′-methylbiphenyl-2-yloxy)-[1,2,4]triazolo[4,3-b]pyridazine]	100 to 1000	–
Cc1ccc(-c2cc(F)ccc2Oc2ccc3nnc(C(F)(F)F)n3n2)cc1 [Cpd.4-142, 3-(trifluoromethyl)-6-(5-fluoro-4′-methylbiphenyl-2-yloxy)-[1,2,4]triazolo[4,3-b]pyridazine]	1000 to 6000	–
Oc1cccc(-c2cc(F)c(F)cc2Oc2ccc3nnc(Cl)n3n2)c1 [Cpd.4-153, 3-chloro-6-(4,5-difluoro-3′-hydroxybiphenyl-2-yloxy)-[1,2,4]triazolo[4,3-b]pyridazine]	1000 to 6000	–
CCN(CC)Cc1ccc(Oc2ccc3nnc(Cl)n3n2)c(-c2ccccc2)c1 [Cpd.4-157, 3-chloro-6-(5-diethylaminomethylbiphenyl-2-yloxy)-[1,2,4]triazolo[4,3-b]pyridazine]	> 6000	> 130
CN1CCN(Cc2ccc(Oc3ccc4nnc(Cl)n4n3)c(-c3ccccc3)c2)CC1 [Cpd.4-159, 3-chloro-6-(5-(4-methylpiperazin-1-ylmethyl)biphenyl-2-yloxy)-[1,2,4]triazolo[4,3-b]pyridazine]	> 6000	> 130
Clc1nnc2ccc(Oc3ccc(CNC4CCCC4)cc3-c3ccccc3)nn12 [Cpd.4-160, 3-chloro-6-(5-(cyclopentylaminomethyl)biphenyl-2-yloxy)-[1,2,4]triazolo[4,3-b]pyridazine]	1000 to 6000	–
Clc1nnc2ccc(Oc3ccc(CNCC4CCCO4)cc3-c3ccccc3)nn12 (stereo not shown) [Cpd.4-163, 3-chloro-6-(5-(tetrahydrofurfurylaminomethyl)biphenyl-2-yloxy)-[1,2,4]triazolo[4,3-b]pyridazine]	> 6000	> 130
FC(F)(F)c1ccc(-c2cccc(CNC3CC3)c2)c(Oc2ccc3nnc(Cl)n3n2)c1 [Cpd.4-168, 3-chloro-6-(4-(trifluoromethyl)-3′-(cyclopropylaminomethyl)biphenyl-2-yloxy)-[1,2,4]triazolo[4,3-b]pyridazine, hydrochloride]	1000 to 6000	–

The next lines start with the values.

EC50 [nM]	Emax [%]	SMILES
1000 to 6000	–	FC(F)(F)c1ccc(-c2cscn2)c(Oc2ccc3nnc(Cl)n3n2)c1 [Cpd.4-106, 3-chloro-6-(2-(thiazol-4-yl)-5-(trifluoromethyl)phenoxy)-[1,2,4]triazolo[4,3-b]pyridazine]
> 6000	> 130	Fc1ccc(Oc2ccc3nnc(Cl)n3n2)c(-c2cccnc2)c1 [Cpd.4-107, 3-chloro-6-(4-fluoro-2-(pyridin-3-yl)phenoxy)-[1,2,4]triazolo[4,3-b]pyridazine]
100 to 1000	–	COc1ccccc1-c1ccccc1Oc1ccc2nnc(Cl)n2n1 [Cpd.4-111, 3-chloro-6-(2′-methoxybiphenyl-2-yloxy)-[1,2,4]triazolo[4,3-b]pyridazine]
100 to 1000	–	Clc1ccc(Oc2ccc(Cl)cc2Oc2ccc3nnc(Cl)n3n2)c(Cl)c1 [Cpd.4-114, 3-chloro-6-[5-chloro-2-(2,4-dichloro-phenoxy)-phenoxy]-[1,2,4]triazolo[4,3-b]pyridazine]
1000 to 6000	–	COc1ncc(-c2ccc(C(F)(F)F)cc2Oc2ccc3nnc(Cl)n3n2)cn1 [Cpd.4-127, 3-chloro-6-((2-(2-methoxypyrimidin-5-yl))-5-(trifluoromethyl)phenoxy)-[1,2,4]triazolo[4,3-b]pyridazine]
100 to 1000	–	Cc1cccc(-c2ccccc2Oc2ccc3nnc(C(F)(F)F)n3n2)c1 [Cpd.4-133, 3-(trifluoromethyl)-6-(3′-methylbiphenyl-2-yloxy)-[1,2,4]triazolo[4,3-b]pyridazine]
100 to 1000	–	Cc1ccc(-c2cc(F)ccc2Oc2ccc3nnc(Cl)n3n2)cc1 [Cpd.4-143, 3-chloro-6-(5-fluoro-4′-methylbiphenyl-2-yloxy)-[1,2,4]triazolo[4,3-b]pyridazine]
1000 to 6000	–	OCc1ccc(-c2ccccc2)c(Oc2ccc3nnc(Cl)n3n2)c1 [Cpd.4-155, 3-chloro-6-(4-(hydroxymethyl)biphenyl-2-yloxy)-[1,2,4]triazolo[4,3-b]pyridazine]
1000 to 6000	–	CS(=O)(=O)N1CCN(Cc2ccc(Oc3ccc4nnc(Cl)n4n3)c(-c3ccccc3)c2)CC1 [Cpd.4-164, 3-chloro-6-(5-(4-methanesulfonyl-piperazin-1-ylmethyl)biphenyl-2-yloxy)-[1,2,4]triazolo[4,3-b]pyridazine]
100 to 1000	–	N#Cc1ccc(-c2ccccc2)c(Oc2ccc3nnc(Cl)n3n2)c1 [Cpd.4-169, 3-chloro-6-(4-cyanobiphenyl-2-yloxy)-[1,2,4]triazolo[4,3-b]pyridazine]
